Laboratory results published in EP1101499A2, “Diagnostic agents for pancreatic exocrine function” (Tokyo Gas Company Limited, priority 1999, dated 2001).
Values joined by “and” are separate entries in the source; they are usually repeats but may differ in a detail not shown here. Identical values can stand only once.

Tests used:
[1] = test system: pancreatic exocrine function; assay: 13C-breath test after oral administration to chronic pancreatitis (oleic acid model) and control/normal rats; format: in vivo, rat; conditions: for Δ^13C value at 20 minutes after the administration / Δ^13C value at 10 minutes after the administration: group value n=4, 250 mg/kg orally; for Δ^13C value at 30 minutes after the administration: group value n=4, 30 mg/kg orally; for Δ^13C (mean) value at 15 minutes after the administration: mean n=2, 420 mg/kg orally
Procedure: […] The rat of 9 weeks old was fixed without anesthesia in a rat holder for a microwave irradiation apparatus. The breath was collected at a rate of about 100 to 300 ml/min using a stroke pump (Variable Stroke Pump VS-500, Shibata Kagaku Kogyo) and introduced directly to a flow cell of a ^13CO2 analyzer EX-130S (Nihon Bunko). A Perma Pure drier (MD-050-12P, Perma Pure INC.) was set between the rat holder and stroke pump to remove out water vapor in the breath. CO2 concentration was stabilized, the rat was once removed out of the rat holder and Bz-DL-Phe-(^13C-Leu).Na dissolved in distilled water was administered into the stomach using an oral sonde.
Output data from the ^13CO2 analyzer were AD converted and put into a personal computer (Apple Power Macintosh 8500). Using a data processing soft ware Lab VIEW (National Instruments), 10 data points at every 100 msec were integrated and averaged in an interval of 5 seconds and converted to ^13C atom %, Δ^13C (‰), and CO2 concentration (%). In this manner, the ^13C breath test was continuously carried out. […] CO2 concentration in the collected breath was held at 3 ± 0.5%.
Δ^13C (%o) was calculated from the ^13C concentration in the exhaled CO2 at each time point (^13C tmin) and the ^13C concentration in standard CO2 (^13C std) according to the following equation: Δ^13 (C (‰) - [()^13 (C tmin -)^13 (C 0min)/)^13 C std] x 1000 [formula]

[2] = test system: pancreatic exocrine function; assay: PFD test: oral BT-PABA, PABA excretion rate in urine; format: in vivo, rat; conditions: specificity 100%
Procedure: The rats of the model of chronic pancreatitis and control rats, which were kept for 3 to 4 weeks after the operation, were made to fast from 9:00 AM. At 4:00 PM, 3 mg/ml of BT-PABA (PFD solution for internal use, Eisai) was orally administered in an amount of 15 mg/kg. Urine was collected for 16 hours until 9:00 AM of the next day. The amount of the collected urine and the PABA concentration in the urine were determined using a PABA measuring kit to determine the excretion rate in urine (PFD test).

chymotrypsin = assay: Degradation by chymotrypsin, released leucine determined by ninhydrin reaction; format: biochemical, bovine; conditions: 23 mM substrate, 0.16 mg/ml chymotrypsin, 20 mM HEPPS-Na pH 8.0, 37°C, 15 minutes
Procedure: Bz-DL-Phe-(^13C-Leu) was reacted with chymotrypsin and the degradation product, leucine, generated upon action of chymotrypsin was quantitatively determined by ninhydrin reaction. The reaction was carried out in 20 mM HEPPS-Na (pH 8.0), 23 mM Bz-DL-Phe- (^13C-Leu), 0.16 mg/ml chymotrypsin (from bovine pancreas, Worthington Biochemical Corporation, #1432, Lot 37A906) at 37°C for 15 minutes. After reaction, 50 µl of citrate buffer (citric acid monohydrate), 20 µl of ninhydrin solution (50 mg/ml solution in methyl cellosolve) and 100 µl of KCN solution (0.01 M aqueous KCN solution diluted 50 times with methyl cellosolve) were added to 100 µl of the reaction mixture and heated at 100°C for 15 minutes. After cooling the ninhydrin reaction mixture to room temperature, 150 µl of 60% (V/V) ethanol was added to 100 µl of the ninhydrin reaction mixture and stirred followed by determination of an absorbance at a wave length of 570 nm. An experiment wherein all the reactions that were carried out without adding Bz-DL-Phe-(^13C-Leu) was taken as a "blank," and leucine was used as a standard.

[3] = individual chronic pancreatitis rats #1-#4, sodium salt 250 mg/kg orally
[4] = individual normal rats #1-#4, sodium salt 250 mg/kg orally

## Bz-Tyr-(^13C-Leu).Na
[1]; chronic pancreatitis rats
  Δ^13C value at 20 minutes after the administration: 3.66 ± 3.24 %o
[1]; normal rats
  Δ^13C value at 20 minutes after the administration: 69.53 ± 32.50 %o

## Bz-L-Phe-(^13C-Leu)
[1]; [3]
  Δ^13C (%o) at 10 min: 1.61 %o and 3.28 %o and 17.21 %o and 5.77 %o
[1]; [4]
  Δ^13C (%o) at 10 min: 31.29 %o and 60.25 %o and 165.37 %o and 203.16 %o

## Arg-(^13C-Leu)
[1]; chronic pancreatitis rats
  Δ^13C value at 30 minutes after the administration: 4.37 ± 1.83 %o
[1]; individual chronic pancreatitis rats #1-#4, 30 mg/kg orally
  Δ^13C (%o) at 30 min: 3.74 %o and 6.97 %o and 4.87 %o and 1.92 %o
[1]; individual normal rats #1-#4, 30 mg/kg orally
  Δ^13C (%o) at 30 min: 10.30 %o and 13.74 %o and 15.37 %o and 10.08 %o
[1]; normal rats
  Δ^13C value at 30 minutes after the administration: 12.37 ± 2.26 %o

## O=C(O)c1ccc(NC(=O)[C@H](Cc2ccc(O)cc2)NC(=O)c2ccccc2)cc1 [PFD, N-benzoyl-L-tyrosyl-p-aminobenzoic acid]
[2]; 15 mg/kg orally, same group of rats as the Bz-DL-Phe-(^13C-Leu) breath test (n=8 / n=4)
  sensitivity in the PFD test: 50%
[2]; same group of rats as the Bz-Ala-(^13C-Ala) breath test (n=8 / n=7)
  sensitivity in the PFD test: 63%
[2]; same group of rats as the Bz-Gly-(^13C-Leu) breath test (n=10 / n=10)
  sensitivity in the PFD test: 50%

## Bz-Ala-Ala-Ala-Ala-(^13C-Gly)-Phe-Leu
[1]; individual chronic pancreatitis rats #1-#2, sodium salt 420 mg/kg orally
  Δ^13C (%o) at 15 min: -1.90 %o and 3.12 %o
[1]; individual normal rats #1-#2, sodium salt 420 mg/kg orally
  Δ^13C (%o) at 15 min: 23.47 %o and 43.16 %o

## Bz-DL-Phe-(^13C-Leu)
chymotrypsin
  rate of degradation: 1.72 nmole/mg chymotrypsin/min

## Bz-Tyr-(^13C-Leu)
[1]; [3]
  Δ^13C (%o) at 20 min: 8.76 %o and 3.58 %o and 2.44 %o and -0.15 %o
[1]; [4]
  Δ^13C (%o) at 20 min: 111.32 %o and 65.76 %o and 21.02 %o and 80.02 %o

## Bz-L-Phe-(^13C-Leu).Na
[1]; chronic pancreatitis rats
  Δ^13C value at 10 minutes after the administration: 6.97 ± 6.09 %o
[1]; normal rats
  Δ^13C value at 10 minutes after the administration: 115.02 ± 71.26 %o

## Bz-DL-Phe-(^13C-Leu).Na
[1]; 250 mg/kg orally, Δ^13C at 10 minutes as check value, cut off set for specificity 100%, chronic pancreatitis n=8, control n=4
  sensitivity: 100%
[1]; chronic pancreatitis rats (n=8) compared with control rats (n=4), 250 mg/kg orally
  Δ^13C (‰) values at 10 minutes after the administration: smaller than the smallest value of Δ ^13C (‰) for the control rats

## Bz-Ala-Ala-Ala-Ala-(^13C-Gly)-Phe-Leu.Na
[1]; chronic pancreatitis rats
  Δ^13C (mean) value at 15 minutes after the administration: 0.61 %o
[1]; normal rats
  Δ^13C (mean) value at 15 minutes after the administration: 33.32 %o

## Bz-Gly-(^13C-Leu)-Na
[1]; 50 mg/kg orally, Δ^13C at 18 minutes as check value, specificity 100%, chronic pancreatitis n=10, normal n=10
  sensitivity: 80%
